Values quoted from earlier work in patent US20260337593A1, “METHOD AND MEANS FOR ENGINEERING NON-RIBOSOMAL PEPTIDES” (JOHANN WOLFGANG GOETHE-UNIVERSITÄT FRANKFURT AM MAIN, priority 2022, published 2026).

Molecular target: Mycobacterium tuberculosis proteasome (Mycobacterium tuberculosis, UniProt P9WHT9)
Conditions: role: inhibitor; literature reference 60

Mycobacterium tuberculosis proteasome, sequence (P9WHT9 whole entry, looked up): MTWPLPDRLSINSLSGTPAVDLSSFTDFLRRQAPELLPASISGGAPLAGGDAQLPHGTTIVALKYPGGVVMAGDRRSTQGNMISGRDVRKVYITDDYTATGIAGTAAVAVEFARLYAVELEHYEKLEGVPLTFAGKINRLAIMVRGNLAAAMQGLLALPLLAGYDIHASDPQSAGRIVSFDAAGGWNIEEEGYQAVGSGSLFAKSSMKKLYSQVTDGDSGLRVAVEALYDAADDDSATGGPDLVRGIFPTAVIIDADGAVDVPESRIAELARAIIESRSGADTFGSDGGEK

CCCCCCCCC[C@@H](O)CC(=O)N[C@@H](CC(N)=O)C(=O)N[C@@H](CCC(N)=O)C(=O)N[C@H](C=O)CC(C)C [fellutamide B]
binding of the active site's threonine: reversible binding
